Toxic doses and inconclusive results are not listed.
Test system: P388 leukemia ip, CD2F1 mice, survival T/C
Experiment: NCI In Vivo Anticancer Drug Screen. Data for tumor model P388 Leukemia (intraperitoneal) in CD2F1 (CDF1) mice
Details: endpoint: median survival time, higher = longer survival
In short: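 Mice carrying the transplanted tumor received test compound or vehicle. Survival was recorded in each group, and the value is the treated-group measurement divided by that of the vehicle-treated control group.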

[1] = dose: 6.25 mg/kg/injection, schedule: Q04DX002 (ip), vehicle: saline with Tween-80
[2] = dose: 50.0 mg/kg/injection, schedule: Q01DX009 (ip), vehicle: Klucel (hydroxypropylcellulose) (HPC)
[3] = dose: 12.5 mg/kg/injection, schedule: Q01DX009 (ip), vehicle: saline with Tween-80
[4] = dose: 25.0 mg/kg/injection, schedule: Q01DX009 (ip), vehicle: saline with Tween-80

S=c1nc[nH]c2c1ncn2C1CCCCO1 (stereo not given)
T/C (dose: 15.0 mg/kg/injection, schedule: Q01DX009 (ip), vehicle: saline with Tween-80): 86 % of control
T/C (dose: 30.0 mg/kg/injection, schedule: Q01DX009 (ip), vehicle: saline with Tween-80): 104 % of control
T/C (dose: 60.0 mg/kg/injection, schedule: Q01DX009 (ip), vehicle: saline with Tween-80): 113 % of control
T/C (dose: 62.5 mg/kg/injection, schedule: Q01DX009 (ip), vehicle: Klucel (hydroxypropylcellulose) (HPC)): 86 % of control
T/C (dose: 100.0 mg/kg/injection, schedule: Q01DX009 (ip), vehicle: saline with Tween-80): 118 % of control
T/C (dose: 100.0 mg/kg/injection, schedule: Q04DX003 (ip), vehicle: saline with Tween-80): 91 % of control
T/C (dose: 120.0 mg/kg/injection, schedule: Q01DX009 (ip), vehicle: saline with Tween-80): 108 % of control
T/C (dose: 125.0 mg/kg/injection, schedule: Q01DX009 (ip), vehicle: Klucel (hydroxypropylcellulose) (HPC)): 109 % of control
T/C (dose: 200.0 mg/kg/injection, schedule: Q01DX009 (ip), vehicle: saline with Tween-80): 104 % of control
T/C (dose: 200.0 mg/kg/injection, schedule: Q04DX003 (ip), vehicle: saline with Tween-80): 108 % of control
T/C (dose: 250.0 mg/kg/injection, schedule: Q01DX009 (ip), vehicle: Klucel (hydroxypropylcellulose) (HPC)): 90 % of control
T/C (dose: 400.0 mg/kg/injection, schedule: Q04DX003 (ip), vehicle: saline with Tween-80): 112 % of control

CCC/C(=N\NC(N)=NC)c1ccc2c(c1)Cc1cc(/C(CCC)=N/NC(N)=NC)ccc1-2
T/C (dose: 3.12 mg/kg/injection, schedule: Q04DX002 (ip), vehicle: saline with Tween-80): 96 % of control
T/C [1]: 100 % of control

COC(=O)C1c2cc3c(c(O)c2CCC1(C)O)C(=O)c1c(O)cc2c(c1C3=O)OC1OC2(C)C(O)C(N(C)C)C1O (stereo not given)
T/C (dose: 6.25 mg/kg/injection, schedule: Q01DX009 (ip), vehicle: saline): 117 % of control
T/C (dose: 12.5 mg/kg/injection, schedule: Q01DX009 (ip), vehicle: saline): 120 % of control
T/C (dose: 25.0 mg/kg/injection, schedule: Q04DX003 (ip), vehicle: saline): 115 % of control
T/C (dose: 50.0 mg/kg/injection, schedule: Q04DX003 (ip), vehicle: saline): 114 % of control
T/C (dose: 100.0 mg/kg/injection, schedule: Q04DX003 (ip), vehicle: saline): 115 % of control

O=S(=O)(O)O.[NH-]CC([NH-])c1ccccc1.[Pt+2] (stereo not given)
T/C [1]: 184 % of control
T/C (dose: 12.5 mg/kg/injection, schedule: Q04DX002 (ip), vehicle: saline with Tween-80): 88 % of control

[N-]=[N+]=C1N=CN=C1c1ncn[nH]1
T/C (dose: 3.12 mg/kg/injection, schedule: Q01DX009 (ip), vehicle: Klucel (hydroxypropylcellulose) (HPC)): 113 % of control
T/C (dose: 12.5 mg/kg/injection, schedule: Q01DX009 (ip), vehicle: Klucel (hydroxypropylcellulose) (HPC)): 150 % of control
T/C (dose: 25.0 mg/kg/injection, schedule: Q01DX009 (ip), vehicle: Klucel (hydroxypropylcellulose) (HPC)): 155 % of control
T/C [2]: 160 % of control

O/N=C/C(=Nc1ccc(-c2ccc(N=C(/C=N/O)NO)cc2)cc1)NO
T/C (dose: 60.0 mg/kg/injection, schedule: Q01DX005 (ip), vehicle: Klucel (hydroxypropylcellulose) (HPC)): 103 % of control
T/C (dose: 120.0 mg/kg/injection, schedule: Q01DX005 (ip), vehicle: Klucel (hydroxypropylcellulose) (HPC)): 102 % of control
T/C (dose: 240.0 mg/kg/injection, schedule: Q01DX005 (ip), vehicle: Klucel (hydroxypropylcellulose) (HPC)): 97 % of control

C=C1CC2C3CC=C4CC(OC(C)=O)CCC4(C)C3CCC2(C)C1=O (stereo not given)
T/C [3]: 94 % of control
T/C [4]: 92 % of control
T/C (dose: 50.0 mg/kg/injection, schedule: Q01DX009 (ip), vehicle: saline): 104 % of control
T/C (dose: 100.0 mg/kg/injection, schedule: Q01DX009 (ip), vehicle: saline): 110 % of control

CCOC(=O)c1ccc(NC(=O)SC2=NCCS2)cc1
T/C [2]: 101 % of control
T/C (dose: 100.0 mg/kg/injection, schedule: Q01DX009 (ip), vehicle: Klucel (hydroxypropylcellulose) (HPC)): 103 % of control

CCOC(=O)N1C=CC=C(Br)C1C#N (stereo not given)
T/C (dose: 50.0 mg/kg/injection, schedule: Q01DX005 (ip), vehicle: saline with Tween-80): 114 % of control

CS(=O)CCC1C(=O)OC(C(C)(C)C)N1C(=O)c1ccccc1 (stereo not given)
T/C (dose: 60.0 mg/kg/injection, schedule: Q01DX005 (ip), vehicle: saline with Tween-80): 101 % of control
T/C (dose: 120.0 mg/kg/injection, schedule: Q01DX005 (ip), vehicle: saline with Tween-80): 100 % of control
T/C (dose: 240.0 mg/kg/injection, schedule: Q01DX005 (ip), vehicle: saline with Tween-80): 105 % of control

CC(C(=O)O)N1C(=O)C=CC1=O (stereo not given)
T/C [3]: 97 % of control
T/C [4]: 91 % of control
